Assay results reported in patent US20130196050A1, “SALTY TASTE ENHANCER” (AJINOMOTO CO., INC., priority 2010, published 2013).

Biological target: T1, Human ENaC δ, β and γ subunit (Homo sapiens, UniProt P51168+P51170+P51172)
T1 construct: expressed in transfected cells; host or cells: Xenopus laevis (African clawed frog) oocytes injected with cRNA
T1 sequence (P51172 1-638 isoform P51172-1): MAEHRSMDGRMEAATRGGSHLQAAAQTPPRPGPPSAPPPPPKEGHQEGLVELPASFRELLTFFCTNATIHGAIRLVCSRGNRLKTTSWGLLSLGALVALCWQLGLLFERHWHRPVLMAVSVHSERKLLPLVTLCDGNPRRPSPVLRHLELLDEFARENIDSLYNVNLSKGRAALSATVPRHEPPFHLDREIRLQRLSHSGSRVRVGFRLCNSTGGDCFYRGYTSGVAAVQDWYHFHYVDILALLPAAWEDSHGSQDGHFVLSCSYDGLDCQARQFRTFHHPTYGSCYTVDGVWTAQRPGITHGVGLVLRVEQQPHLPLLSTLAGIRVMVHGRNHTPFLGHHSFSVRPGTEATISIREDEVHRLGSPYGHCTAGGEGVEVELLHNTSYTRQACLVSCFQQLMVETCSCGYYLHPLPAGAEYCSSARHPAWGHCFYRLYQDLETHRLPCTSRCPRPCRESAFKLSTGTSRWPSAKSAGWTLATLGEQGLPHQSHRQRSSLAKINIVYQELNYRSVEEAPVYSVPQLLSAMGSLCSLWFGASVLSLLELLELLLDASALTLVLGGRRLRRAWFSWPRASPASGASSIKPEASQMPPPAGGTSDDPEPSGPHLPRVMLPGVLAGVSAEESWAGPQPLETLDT
T1 sequence (P51168 1-640): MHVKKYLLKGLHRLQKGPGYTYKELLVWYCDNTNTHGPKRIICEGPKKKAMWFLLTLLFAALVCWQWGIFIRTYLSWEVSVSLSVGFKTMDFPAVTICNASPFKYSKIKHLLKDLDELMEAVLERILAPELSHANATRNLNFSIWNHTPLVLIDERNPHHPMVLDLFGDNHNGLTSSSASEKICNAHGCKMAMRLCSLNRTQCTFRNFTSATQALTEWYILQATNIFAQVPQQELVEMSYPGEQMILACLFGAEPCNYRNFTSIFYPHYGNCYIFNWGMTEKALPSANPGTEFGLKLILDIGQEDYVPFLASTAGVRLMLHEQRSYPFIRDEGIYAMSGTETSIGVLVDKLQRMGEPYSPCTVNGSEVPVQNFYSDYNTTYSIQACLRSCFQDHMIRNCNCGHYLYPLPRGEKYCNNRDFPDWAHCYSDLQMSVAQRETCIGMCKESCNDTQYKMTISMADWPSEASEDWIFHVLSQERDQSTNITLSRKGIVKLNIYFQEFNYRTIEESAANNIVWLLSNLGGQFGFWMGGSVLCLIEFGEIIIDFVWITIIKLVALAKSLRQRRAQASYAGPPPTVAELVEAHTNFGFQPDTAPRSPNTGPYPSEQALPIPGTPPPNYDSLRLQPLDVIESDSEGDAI
T1 sequence (P51170 1-649): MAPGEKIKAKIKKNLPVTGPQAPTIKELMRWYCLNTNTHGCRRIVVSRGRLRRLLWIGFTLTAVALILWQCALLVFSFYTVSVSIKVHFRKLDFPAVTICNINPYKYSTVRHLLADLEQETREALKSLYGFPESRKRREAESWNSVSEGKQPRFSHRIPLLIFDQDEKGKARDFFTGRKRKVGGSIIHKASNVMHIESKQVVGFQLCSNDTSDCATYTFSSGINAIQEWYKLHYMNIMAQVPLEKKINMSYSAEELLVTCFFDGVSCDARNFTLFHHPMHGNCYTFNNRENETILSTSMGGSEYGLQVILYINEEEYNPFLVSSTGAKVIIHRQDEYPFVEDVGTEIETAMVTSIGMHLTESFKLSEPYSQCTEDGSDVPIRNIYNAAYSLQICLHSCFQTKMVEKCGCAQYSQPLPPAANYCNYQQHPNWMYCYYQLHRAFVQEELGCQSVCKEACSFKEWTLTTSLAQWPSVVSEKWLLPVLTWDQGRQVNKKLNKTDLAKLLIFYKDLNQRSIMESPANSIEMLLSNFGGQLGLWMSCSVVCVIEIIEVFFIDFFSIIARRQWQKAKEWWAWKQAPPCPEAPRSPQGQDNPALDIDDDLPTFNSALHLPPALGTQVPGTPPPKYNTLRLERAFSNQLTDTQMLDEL
Test: Measurement of ENaC activation potency (two electrode voltage clamp current in ENaC-expressing oocyte)
Format: cell-based
Procedure, shortened: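 Xenopus oocytes were injected with human ENaC δ, β and γ cRNA, cultured 16–72 h, and voltage-clamped by two-electrode clamp at −30 mV below resting potential in ND96 (pH 7.6) perfusion. Compounds (0.1 nM–300 μM) were added in rising concentrations at 3-min intervals. MED was the first concentration raising current by ≥10% over pre-addition current.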

O=C(NCCc1c[nH]c2ccc(O)cc12)c1c(O)cccc1O [Example 35, 2,6-dihydroxy-N-(2-(5-hydroxy-1H-indol-3-yl)ethyl)benzamide]
concentration from which the ENaC activation current starts to increase (FIG. 3): 0.00001 g/dL
concentration at which the ENaC activation current reaches the maximum current value (FIG. 3, almost constant up to 0.0080 g/dl): 0.0020 g/dL
MED value (minimum effective dose) (lowest concentration increasing the current value by not less than 10% vs before addition): 0.1 to 0.3 µM
